The values that follow come from patent US5997843A, “Radiometal complexes that localise in hypoxic tissue” (priority 1993, dated 1999).

For data set [1], the system named is isolated (Langendorff) rat hearts. The data set is described as follows: Isolated perfused heart (Langendorff), hypoxic vs oxic uptake/retention. Conditions: for Hypoxic/Oxic Ratio (H/O): ^99m Tc complex (or ^123 I-IAZA), 20 min infusion, 15 min washout; for Normalised Hypoxic Retention: relative to ^3 H-misonidazole activity. The procedure: A 15-minute cold buffer washout period follows. y activity in the heart is monitored using a collimated NaI probe detector positioned over the heart.
Activity in hearts, relative to perfusate activity, is calculated for each nuclide and data evaluated for each compound for activity in hypoxic and oxic hearts (hypoxic:oxic ratio) and also relative to the 3 H-misonidazole activity (normalised retention) using Formula 1. [formula] Results

Data set [2] is described as follows: Biodistribution in rats. Format: in vivo, male rats. The note with it: i.v. The protocol: Biodistribution in Rats--Methods
The quantitative biodistribution was studied in male rats at 2 minutes, 1 hour and 4 hours post-injection
Rats under light anaesthesia were injected intravenously with 0.1 ml of test agent. Three rats were sacrificed (anaesthesia followed by exsanguination) at 2, 60 and 240 minutes, post-injection. The percentage of the injected dose in the excreta and organs and tissues was determined by dissection and assay for radioactivity in an automatic gamma counter.

Setting [3] is: 2 min post-injection, ^99m Tc complex.
Where [4] appears, read: 240 min post-injection (third printed value).
The mark [5] stands for this setting: second of two values, 60 or 240 min not assignable.

In the case of `CC(C)(C=NO)NCCCCNC(C)(C)C=NO` [Compound VI, 3,8-diaza-2,2,9,9-tetramethyldecan-1,10-dial dioxime], in data set [1], the “Hypoxic/Oxic Ratio (H/O)” value was determined as 3.2 and the “Normalised Hypoxic Retention” value came out at 0.67. In data set [2] (2 min post-injection), the Bladder/Urine was 0.6 percent injected dose, the Blood amounted to 13.5 percent injected dose, the Gut worked out at 8.6 percent injected dose and the Kidney is given as 12.5 percent injected dose. In addition, the Liver in data set [2] (2 min post-injection) worked out at 12.2 percent injected dose. The compound also showed a Muscle in data set [2] (setting [3]) of 24.8 percent injected dose. In data set [2] (60 min post-injection), the Gut amounted to 16.3 percent injected dose and the Muscle is on record as 13.4 percent injected dose. Besides, the Muscle in data set [2] (setting [4]) was 10.0 percent injected dose. In addition, in data set [2] (240 min post-injection), the Gut was 21.2 percent injected dose. In data set [2] (setting [5]), this compound gave a Blood of 5.3 percent injected dose, a Kidney of 10.4 percent injected dose and a Liver of 13.7 percent injected dose.

Regarding `CC(C)(C=NO)NCCCCNC(C)(C)C(Cn1ccnc1[N+](=O)[O-])=NO` [Compound XII, 3,8-diaza-10-hydroxyimino-11-(2-nitro-1-imidazolyl)-2,2,9,9-tetramethylundecanal oxime], in data set [1], the “hypoxia selectivity / hypoxic/oxic ratio / hypoxic retention (in words)” value is “little or no effect on both the hypoxic/oxic ratio and normalised hypoxic retention”; the “Hypoxic/Oxic Ratio (H/O)” value is given as 9.5; the “Normalised Hypoxic Retention” value was found to be 1.9. Moreover, in data set [2] (2 min post-injection), the Bladder/Urine came to 1.2 percent injected dose, the Blood worked out at 10.8 percent injected dose, the Gut amounted to 13.4 percent injected dose and the Kidney came out at 13.3 percent injected dose. Further, the Liver in data set [2] (2 min post-injection) came to 16.0 percent injected dose. In data set [2] (setting [3]), this compound yielded a Muscle of 23.9 percent injected dose. In data set [2] (60 min post-injection), the Gut is 31.9 percent injected dose and the Muscle is listed as 8.2 percent injected dose. Besides, the Muscle in data set [2] (setting [4]) was 5.2 percent injected dose. Besides, the Gut in data set [2] (240 min post-injection) was 35.5 percent injected dose. In data set [2] (setting [5]), this compound came in with a Blood of 2.0 percent injected dose, a Kidney of 5.5 percent injected dose and a Liver of 11.0 percent injected dose.

Take `CC(=NO)C(C)NCCCCNC(C)C(C)=NO` (stereo not drawn) [Compound XIII, 4,9-Diaza-3,10-dimethyldodecan-2,11-dione dioxime]: in data set [2] (2 min post-injection), the Bladder/Urine worked out at 1.1 percent injected dose, the Blood is 9.8 percent injected dose, the Gut amounted to 11.4 percent injected dose and the Kidney was found to be 8.8 percent injected dose. Also, the Liver in data set [2] (2 min post-injection) is 18.4 percent injected dose. The Muscle in data set [2] (setting [3]) is listed as 25.7 percent injected dose. In data set [2] (60 min post-injection), the Gut is 23.0 percent injected dose and the Muscle is 10.1 percent injected dose. In data set [2] (setting [4]), this compound came in with a Muscle of 7.1 percent injected dose. This compound also registered a Gut in data set [2] (240 min post-injection) of 25.6 percent injected dose. Besides, in data set [2] (setting [5]), the Blood came to 5.0 percent injected dose, the Kidney amounted to 8.8 percent injected dose and the Liver is 20.4 percent injected dose.

`CC(C)(NCCCCNC(C)(C)C(Cn1ccnc1[N+](=O)[O-])=NO)C(Cn1ccnc1[N+](=O)[O-])=NO` [Compound XI, 1,12-bis(2-Nitro-1-imidazolyl)-4,9-diaza-3,3,10,10-tetramethyldodecan-2,11-dione dioxime]: in data set [1], the “hypoxia selectivity / hypoxic/oxic ratio / hypoxic retention (in words)” value was “further reduces the hypoxia selectivity”, the “Hypoxic/Oxic Ratio (H/O)” value was determined as 3.4 and the “Normalised Hypoxic Retention” value is recorded as 0.98. Further, in data set [2] (2 min post-injection), the Bladder/Urine is 0.2 percent injected dose, the Blood stood at 10.8 percent injected dose, the Gut is on record as 18.2 percent injected dose and the Kidney was 8.6 percent injected dose. Moreover, the Liver in data set [2] (2 min post-injection) was 21.7 percent injected dose. Also, in data set [2] (setting [3]), the Muscle was determined as 18.7 percent injected dose. Further, in data set [2] (60 min post-injection), the Gut is 56.7 percent injected dose and the Muscle was found to be 5.6 percent injected dose. In data set [2] (setting [4]), this compound registered a Muscle of 3.1 percent injected dose. The Gut in data set [2] (240 min post-injection) came to 66.0 percent injected dose. In data set [2] (setting [5]), the Blood is reported as 1.4 percent injected dose, the Kidney turned out to be 2.1 percent injected dose and the Liver is 7.3 percent injected dose.

As to `CCC(=NO)C(C)(C)NCCCCNC(C)(C)C=NO` [Compound VII, 3,8-diaza-10-(hydroxyimino)-2,2,9,9-tetramethyl dodecanal oxime], in data set [1], the “Hypoxic/Oxic Ratio (H/O)” value is recorded as 8.8 and the “Normalised Hypoxic Retention” value is reported as 1.5. In data set [2] (2 min post-injection), this compound registered a Bladder/Urine of 0.8 percent injected dose, a Blood of 11.8 percent injected dose, a Gut of 12.1 percent injected dose and a Kidney of 9.8 percent injected dose. Moreover, the Liver in data set [2] (2 min post-injection) is on record as 12.9 percent injected dose. The same compound registered a Muscle in data set [2] (setting [3]) of 25.6 percent injected dose. In addition, in data set [2] (60 min post-injection), the Gut is reported as 23.2 percent injected dose and the Muscle was determined as 9.2 percent injected dose. In data set [2] (setting [4]), this compound displayed a Muscle of 7.5 percent injected dose. In data set [2] (240 min post-injection), this compound came in with a Gut of 31.3 percent injected dose. In addition, in data set [2] (setting [5]), the Blood turned out to be 3.0 percent injected dose, the Kidney was found to be 3.4 percent injected dose and the Liver came out at 11.6 percent injected dose.

Turning to `O=[N+]([O-])c1nccn1[C@H]1O[C@H](C[123I])[C@@H](O)[C@@H]1O` [^123 I-IAZA, ^123 I-iodoazomycin arabinoside, reference compound], in data set [1], the “Hypoxic/Oxic Ratio (H/O)” value turned out to be 10 and the “Normalised Hypoxic Retention” value is recorded as 2.7.

`CCC(=NO)C(C)(C)NCCCCNC(C)(C)C(C)=NO` [Compound IX, 4,9-diaza-3,3,10,10-tetramethyltridecan-2,11-dione dioxime]: in data set [1], the “Hypoxic/Oxic Ratio (H/O)” value was determined as 8.4 and the “Normalised Hypoxic Retention” value was 2.1. Moreover, in data set [2] (2 min post-injection), the Bladder/Urine is on record as 0.8 percent injected dose, the Blood turned out to be 10.1 percent injected dose, the Gut was determined as 13.8 percent injected dose and the Kidney was 7.7 percent injected dose. This compound also returned a Liver in data set [2] (2 min post-injection) of 12.9 percent injected dose. In data set [2] (setting [3]), this compound had a Muscle of 32.1 percent injected dose. In data set [2] (60 min post-injection), this compound returned a Gut of 31.6 percent injected dose and a Muscle of 8.3 percent injected dose. For the same compound, the Muscle in data set [2] (setting [4]) is recorded as 3.0 percent injected dose. In data set [2] (240 min post-injection), this compound returned a Gut of 37.7 percent injected dose. Further, in data set [2] (setting [5]), the Blood is reported as 2.0 percent injected dose, the Kidney is reported as 2.2 percent injected dose and the Liver came to 11.2 percent injected dose.

Regarding `COC(=O)C(CCCNC(C)(C)C(C)=NO)NC(C)(C)C(C)=NO` (stereo not drawn) [Compound XVI, 4,9-diaza-3,3,10,10-tetramethyldodecan-2,11-dione dioxime-8-carboxylic acid methyl ester], in data set [1], the “Hypoxic/Oxic Ratio (H/O)” value was 4.0 and the “Normalised Hypoxic Retention” value is recorded as 0.22. In data set [2] (2 min post-injection), the Bladder/Urine is on record as 0.3 percent injected dose, the Blood is recorded as 17.8 percent injected dose, the Gut is given as 6.3 percent injected dose and the Kidney was 13.8 percent injected dose. The compound further registered a Liver in data set [2] (2 min post-injection) of 4.4 percent injected dose. Besides, the Muscle in data set [2] (setting [3]) is reported as 24.4 percent injected dose. In data set [2] (60 min post-injection), this compound showed a Gut of 6.5 percent injected dose and a Muscle of 3.7 percent injected dose. This compound also gave a Muscle in data set [2] (setting [4]) of 2.3 percent injected dose. In data set [2] (240 min post-injection), this compound gave a Gut of 12.4 percent injected dose. Further, in data set [2] (setting [5]), the Blood is listed as 3.1 percent injected dose, the Kidney is listed as 7.6 percent injected dose and the Liver is recorded as 2.5 percent injected dose.

`CC(=NO)C(C)(C)NCCCCCNC(C)(C)C(C)=NO` [Compound III, 4,10-diaza-3,3,11,11-tetramethyltridecan-2,12-dione dioxime]: the Bladder/Urine in data set [2] (2 min post-injection) was determined as 0.2 percent injected dose. Also, the figures for the Blood in data set [2] (2 min post-injection) and in data set [2] (setting [5]) were 18.1 percent injected dose and 1.1 percent injected dose, respectively. The Gut in data set [2] (2 min post-injection) came out at 8.2 percent injected dose; in data set [2] (60 min post-injection), 25.0 percent injected dose; in data set [2] (240 min post-injection), 35.6 percent injected dose. In addition, the Kidney in data set [2] (2 min post-injection) worked out at 11.3 percent injected dose; in data set [2] (setting [5]) it was 4.2 percent injected dose. In addition, the Liver worked out at 9.7 percent injected dose in data set [2] (2 min post-injection) and 5.4 percent injected dose in data set [2] (setting [5]). Further, the Muscle is recorded as 26.9 percent injected dose in data set [2] (setting [3]), 10.1 percent injected dose in data set [2] (60 min post-injection) and 3.3 percent injected dose in data set [2] (setting [4]).
